± gives the standard deviation of the averaged measurements.
Experiments:
Conditions in all cases: exposure time: 72 h
E13 [1] = patient-derived glioblastoma stem cells of classical subtype; assay: surviving fraction (nuclei count normalised to DMSO); higher = more cells surviving (less toxic)
E21 [2] = patient-derived glioblastoma stem cells of mesenchymal subtype; assay: as above
E28 [3] = patient-derived glioblastoma stem cells of classical subtype; assay: as above
E34 [4] = patient-derived glioblastoma stem cells of proneural subtype; assay: as above
E57 [5] = patient-derived glioblastoma stem cells of mesenchymal subtype; assay: as above
FT3469 [6] = normal neural stem cell line; assay: as above
E13 [7] = assay: phenotypic distance (Euclidean, principal components) from DMSO controls (arbitrary units); higher = stronger morphological change
E21 [8] = assay: as above
E28 [9] = assay: as above
E34 [10] = assay: as above
E57 [11] = assay: as above
FT3469 [12] = assay: as above
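Throughout, for phenotypic distance (Euclidean, principal components) from DMSO controls: cell Painting imaging in 384-well plates, CellProfiler features reduced to at least 20 principal components, Euclidean distance versus same-plate DMSO vehicle wells (0.1% v/v), median over six images per well.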
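Throughout, for surviving fraction (nuclei count normalised to DMSO): nuclei counted by high-content imaging of Hoechst-stained cells in laminin-coated 384-well plates, relative to 0.1% DMSO vehicle wells, with staurosporine as cell-death control.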

## CC(C)C[C@H](NC(=O)[C@H](Cc1ccccc1)C[C@@H](O)[C@H](Cc1ccccc1)NC(=O)OC(C)(C)C)C(=O)N[C@@H](Cc1ccccc1)C(N)=O [L-685,458]
E13 [1]; 4.1 nM
  surviving fraction: 1.06
E13 [1]; 4.11523 nM
  surviving fraction: 1.16
E13 [1]; 12.3 nM
  surviving fraction: 1.04
E13 [1]; 12.34567901 nM
  surviving fraction: 1.1
E13 [1]; 37 nM
  surviving fraction: 1.01
E13 [1]; 37.037 nM
  surviving fraction: 0.999
E13 [1]; 111.1 nM
  surviving fraction: 1.18
E13 [1]; 111.1111111 nM
  surviving fraction: 1.01
E13 [1]; 333.3 nM
  surviving fraction: 1.02
E13 [1]; 333.333 nM
  surviving fraction: 1.09
E13 [1]; 1000 nM
  surviving fraction: 1.14 ± 0.11
E13 [1]; 3000 nM
  surviving fraction: 1.01 ± 0.018
E21 [2]; 4.1 nM
  surviving fraction: 0.96
E21 [2]; 4.11523 nM
  surviving fraction: 0.891
E21 [2]; 12.3 nM
  surviving fraction: 0.969
E21 [2]; 12.34567901 nM
  surviving fraction: 0.958
E21 [2]; 37 nM
  surviving fraction: 0.95
E21 [2]; 37.037 nM
  surviving fraction: 0.941
E21 [2]; 111.1 nM
  surviving fraction: 1.03
E21 [2]; 111.1111111 nM
  surviving fraction: 1.03
E21 [2]; 333.3 nM
  surviving fraction: 0.861
E21 [2]; 333.333 nM
  surviving fraction: 1.04
E21 [2]; 1000 nM
  surviving fraction: 1.05 ± 0.053
E21 [2]; 3000 nM
  surviving fraction: 0.948 ± 0.022
E28 [3]; 4.1 nM
  surviving fraction: 0.997
E28 [3]; 4.11523 nM
  surviving fraction: 1.1
E28 [3]; 12.3 nM
  surviving fraction: 1.15
E28 [3]; 12.34567901 nM
  surviving fraction: 0.885
E28 [3]; 37 nM
  surviving fraction: 0.825
E28 [3]; 37.037 nM
  surviving fraction: 1.02
E28 [3]; 111.1 nM
  surviving fraction: 1.11
E28 [3]; 111.1111111 nM
  surviving fraction: 0.813
E28 [3]; 333.3 nM
  surviving fraction: 0.795
E28 [3]; 333.333 nM
  surviving fraction: 1.02
E28 [3]; 1000 nM
  surviving fraction: 0.858 ± 0.077
E28 [3]; 3000 nM
  surviving fraction: 0.834 ± 0.13
E34 [4]; 4.1 nM
  surviving fraction: 0.787
E34 [4]; 4.11523 nM
  surviving fraction: 0.957
E34 [4]; 12.3 nM
  surviving fraction: 1.02
E34 [4]; 12.34567901 nM
  surviving fraction: 0.895
E34 [4]; 37 nM
  surviving fraction: 0.964
E34 [4]; 37.037 nM
  surviving fraction: 1.09
E34 [4]; 111.1 nM
  surviving fraction: 0.946
E34 [4]; 111.1111111 nM
  surviving fraction: 0.976
E34 [4]; 333.3 nM
  surviving fraction: 0.746
E34 [4]; 333.333 nM
  surviving fraction: 1.15
E34 [4]; 1000 nM
  surviving fraction: 1 ± 0.059
E34 [4]; 3000 nM
  surviving fraction: 0.924 ± 0.091
E57 [5]; 4.1 nM
  surviving fraction: 1.04
E57 [5]; 4.11523 nM
  surviving fraction: 0.963
E57 [5]; 12.3 nM
  surviving fraction: 0.967
E57 [5]; 12.34567901 nM
  surviving fraction: 0.988
E57 [5]; 37 nM
  surviving fraction: 0.958
E57 [5]; 37.037 nM
  surviving fraction: 0.998
E57 [5]; 111.1 nM
  surviving fraction: 1.01
E57 [5]; 111.1111111 nM
  surviving fraction: 1.03
E57 [5]; 333.3 nM
  surviving fraction: 1.08
E57 [5]; 333.333 nM
  surviving fraction: 0.989
E57 [5]; 1000 nM
  surviving fraction: 1.04 ± 0.037
E57 [5]; 3000 nM
  surviving fraction: 1 ± 0.024
FT3469 [6]; 4.1 nM
  surviving fraction: 0.944
FT3469 [6]; 4.11523 nM
  surviving fraction: 0.979
FT3469 [6]; 12.3 nM
  surviving fraction: 1.02
FT3469 [6]; 12.34567901 nM
  surviving fraction: 0.858
FT3469 [6]; 37 nM
  surviving fraction: 0.9
FT3469 [6]; 37.037 nM
  surviving fraction: 1.03
FT3469 [6]; 111.1 nM
  surviving fraction: 0.901
FT3469 [6]; 111.1111111 nM
  surviving fraction: 0.984
FT3469 [6]; 333.3 nM
  surviving fraction: 0.882
FT3469 [6]; 333.333 nM
  surviving fraction: 0.884
FT3469 [6]; 1000 nM
  surviving fraction: 0.867 ± 0.076
FT3469 [6]; 3000 nM
  surviving fraction: 0.838 ± 0.065
E13 [7]; 4.1 nM
  phenotypic distance: 0.562
E13 [7]; 4.11523 nM
  phenotypic distance: 0.913
E13 [7]; 12.3 nM
  phenotypic distance: 0.877
E13 [7]; 12.34567901 nM
  phenotypic distance: 0.727
E13 [7]; 37 nM
  phenotypic distance: 0.594
E13 [7]; 37.037 nM
  phenotypic distance: 0.991
E13 [7]; 111.1 nM
  phenotypic distance: 0.891
E13 [7]; 111.1111111 nM
  phenotypic distance: 2.26
E13 [7]; 333.3 nM
  phenotypic distance: 0.794
E13 [7]; 333.333 nM
  phenotypic distance: 0.929
E13 [7]; 1000 nM
  phenotypic distance: 1.66 ± 1.3
E13 [7]; 3000 nM
  phenotypic distance: 0.881 ± 0.11
E21 [8]; 4.1 nM
  phenotypic distance: 0.782
E21 [8]; 4.11523 nM
  phenotypic distance: 0.593
E21 [8]; 12.3 nM
  phenotypic distance: 0.577
E21 [8]; 12.34567901 nM
  phenotypic distance: 0.764
E21 [8]; 37 nM
  phenotypic distance: 0.535
E21 [8]; 37.037 nM
  phenotypic distance: 0.752
E21 [8]; 111.1 nM
  phenotypic distance: 0.68
E21 [8]; 111.1111111 nM
  phenotypic distance: 0.628
E21 [8]; 333.3 nM
  phenotypic distance: 0.73
E21 [8]; 333.333 nM
  phenotypic distance: 0.786
E21 [8]; 1000 nM
  phenotypic distance: 0.724 ± 0.13
E21 [8]; 3000 nM
  phenotypic distance: 0.836 ± 0.1
E28 [9]; 4.1 nM
  phenotypic distance: 0.474
E28 [9]; 4.11523 nM
  phenotypic distance: 0.565
E28 [9]; 12.3 nM
  phenotypic distance: 0.894
E28 [9]; 12.34567901 nM
  phenotypic distance: 0.663
E28 [9]; 37 nM
  phenotypic distance: 0.847
E28 [9]; 37.037 nM
  phenotypic distance: 0.502
E28 [9]; 111.1 nM
  phenotypic distance: 0.482
E28 [9]; 111.1111111 nM
  phenotypic distance: 0.958
E28 [9]; 333.3 nM
  phenotypic distance: 0.937
E28 [9]; 333.333 nM
  phenotypic distance: 0.39
E28 [9]; 1000 nM
  phenotypic distance: 0.79 ± 0.3
E28 [9]; 3000 nM
  phenotypic distance: 0.756 ± 0.4
E34 [10]; 4.1 nM
  phenotypic distance: 1.11
E34 [10]; 4.11523 nM
  phenotypic distance: 0.526
E34 [10]; 12.3 nM
  phenotypic distance: 0.954
E34 [10]; 12.34567901 nM
  phenotypic distance: 0.619
E34 [10]; 37 nM
  phenotypic distance: 0.627
E34 [10]; 37.037 nM
  phenotypic distance: 0.56
E34 [10]; 111.1 nM
  phenotypic distance: 0.75
E34 [10]; 111.1111111 nM
  phenotypic distance: 0.762
E34 [10]; 333.3 nM
  phenotypic distance: 1.1
E34 [10]; 333.333 nM
  phenotypic distance: 0.452
E34 [10]; 1000 nM
  phenotypic distance: 0.948 ± 0.099
E34 [10]; 3000 nM
  phenotypic distance: 1.12 ± 0.25
E57 [11]; 4.1 nM
  phenotypic distance: 0.808
E57 [11]; 4.11523 nM
  phenotypic distance: 1.06
E57 [11]; 12.3 nM
  phenotypic distance: 1.19
E57 [11]; 12.34567901 nM
  phenotypic distance: 0.938
E57 [11]; 37 nM
  phenotypic distance: 1.05
E57 [11]; 37.037 nM
  phenotypic distance: 0.959
E57 [11]; 111.1 nM
  phenotypic distance: 1.22
E57 [11]; 111.1111111 nM
  phenotypic distance: 0.783
E57 [11]; 333.3 nM
  phenotypic distance: 0.893
E57 [11]; 333.333 nM
  phenotypic distance: 1.03
E57 [11]; 1000 nM
  phenotypic distance: 1.1 ± 0.095
E57 [11]; 3000 nM
  phenotypic distance: 1.07 ± 0.29
FT3469 [12]; 4.1 nM
  phenotypic distance: 0.822
FT3469 [12]; 4.11523 nM
  phenotypic distance: 0.544
FT3469 [12]; 12.3 nM
  phenotypic distance: 0.633
FT3469 [12]; 12.34567901 nM
  phenotypic distance: 0.898
FT3469 [12]; 37 nM
  phenotypic distance: 0.582
FT3469 [12]; 37.037 nM
  phenotypic distance: 0.598
FT3469 [12]; 111.1 nM
  phenotypic distance: 1.41
FT3469 [12]; 111.1111111 nM
  phenotypic distance: 0.791
FT3469 [12]; 333.3 nM
  phenotypic distance: 0.871
FT3469 [12]; 333.333 nM
  phenotypic distance: 0.681
FT3469 [12]; 1000 nM
  phenotypic distance: 0.906 ± 0.059
FT3469 [12]; 3000 nM
  phenotypic distance: 1.06 ± 0.32

Source: the supplement of paper PMC13207355
